In ChEMBL document CHEMBL1122503 (J Med Chem, 1983):

How the values were obtained:
Nucleic Acid [1] = test system: Nucleic Acid
L1210 = experiment: cells; settings: Mus musculus, L1210, read-out: ID50
Description: Growth inhibition against cultured murine L1210 leukemia cells

Nucleic Acid [2] = test system: Nucleic Acid; remark: listed apart in the source
physchem = settings: 20% aqueous DMF
Description: pKa value determined spectrophotometrically in 20% aqueous DMF

| Structure (SMILES) | Log K (Nucleic Acid [1]) | IC50 (L1210) [nM] | Log K (Nucleic Acid [2]) | pKa (physchem) |
| --- | --- | --- | --- | --- |
| COc1ccc2c(Nc3ccc(NS(C)(=O)=O)cc3OC)c3ccccc3nc2c1 | 5.83 | 22 | 5.97 |  |
| COc1cc(NS(C)(=O)=O)ccc1Nc1c2ccccc2nc2ccccc12 | 5.57 |  | 5.65 |  |
| COc1cc(NS(C)(=O)=O)ccc1Nc1c2ccccc2nc2cc([N+](=O)[O-])ccc12 | 5.65 | 110 | 6.13 | 5.52 |
| COc1cc(NS(C)(=O)=O)ccc1Nc1c2ccc(C)cc2nc2c(C(=O)NCC(N)=O)cccc12 | 6 | 460 | 6.69 | 4.53 |
| COc1cc(NS(C)(=O)=O)ccc1Nc1c2ccc(Cl)cc2nc2c(C(N)=O)cccc12 | 6.33 | 520 | 6.58 | 5.68 |
| COc1cc(NS(C)(=O)=O)ccc1Nc1c2ccc(Cl)cc2nc2c(C(=O)NCC(N)=O)cccc12 | 6.06 | 890 | 6.83 | 5.5 |
| COc1cc(NS(C)(=O)=O)ccc1Nc1c2ccccc2nc2c(C(=O)NCC(N)=O)cccc12 | 5.39 | 850 | 6.4 |  |
| COc1cc(NS(C)(=O)=O)ccc1Nc1c2ccccc2nc2c(C(N)=O)cccc12 | 5.47 | 270 | 6.13 |  |
| COc1cc(NS(C)(=O)=O)ccc1Nc1c2ccccc2nc2cc(N)ccc12 | 6.21 | 5.5 | 6.13 | 9.5 |
| COc1cc(NS(C)(=O)=O)ccc1Nc1c2ccccc2nc2cc(C)ccc12 | 5.95 | 12 | 6.08 |  |
| COc1cc(NS(C)(=O)=O)ccc1Nc1c2ccccc2nc2cc(Br)ccc12 | 6.29 | 50 | 6.12 |  |
| COc1cc(NS(C)(=O)=O)ccc1Nc1c2ccccc2nc2cc(Cl)ccc12 | 6.06 | 70 | 5.98 |  |
| COc1cc(NS(C)(=O)=O)ccc1Nc1c2ccccc2nc2cc(I)ccc12 | 6.35 | 50 | 6.2 |  |

Second part, the compound after the results:

| Log K (Nucleic Acid [1]) | IC50 (L1210) [nM] | Log K (Nucleic Acid [2]) | pKa (physchem) | Structure (SMILES) |
| --- | --- | --- | --- | --- |
| 6.29 | 217 | 6.65 | 5.68 | CNC(=O)c1cccc2c(Nc3ccc(NS(C)(=O)=O)cc3OC)c3ccc(Cl)cc3nc12 |
| 6.38 | 68 | 6.82 | 4.82 | CNC(=O)c1cccc2c(Nc3ccc(NS(C)(=O)=O)cc3OC)c3ccc(OC)cc3nc12 |
| 5.96 | 350 | 6.4 | 4.71 | COc1cc(NS(C)(=O)=O)ccc1Nc1c2ccc([N+](=O)[O-])cc2nc2c(C(N)=O)cccc12 |
| 6.22 | 170 | 6.68 | 4.71 | CNC(=O)c1cccc2c(Nc3ccc(NS(C)(=O)=O)cc3OC)c3ccc(C)cc3nc12 |
| 5.71 | 303 | 6.65 | 4.71 | CNC(=O)c1cccc2c(Nc3ccc(NS(C)(=O)=O)cc3OC)c3ccc([N+](=O)[O-])cc3nc12 |
| 6.29 | 21 | 6.82 |  | CNC(=O)c1cccc2c(Nc3ccc(NS(C)(=O)=O)cc3OC)c3ccc(N)cc3nc12 |
| 5.54 | 270 | 6.18 |  | CNC(=O)c1cccc2c(Nc3ccc(NS(C)(=O)=O)cc3OC)c3ccccc3nc12 |
| 6.4 | 200 | 6.3 | 4.71 | COc1cc(NS(C)(=O)=O)ccc1Nc1c2ccc(C)cc2nc2c(C(N)=O)cccc12 |
